Laboratory results published in patent publication US7745465B2, “Method of enhancing cellular production of molecular chaperone, hydroxylamine derivatives useful for enhancing the chaperone production and the preparation thereof” (CytRx Corporation, priority 1995, dated 2010).

Key:
Hsp72 = assay: Western blot of hsp72 in heat shocked H9c2 cells; format: cell-based, rat
Protocol: Experiments set forth in this section were conducted to determine whether N-[2-hydroxy-3-(1-piperidinyl)propoxy]-3-pyridinecarboximidoyl chloride maleate acts to increase the expression of molecular chaperon by a cell. The accumulation of different heat shock proteins subsequent to a period of exposure to heat shock alone, and to heat shock in combination with N-[2-hydroxy-3-(1-piperidinyl)propoxy]-3-pyridinecarboximidoyl chloride maleate administration, was examined by adding 10^−5 M of N-[2-hydroxy-3-(1-piperidinyl)propoxy]-3-pyridinecarboximidoyl chloride maleate before, during, or immediately after hyperthermic treatment of heart myogenic cells (H9c2 cells).
The embryonic rat heart-derived cell line H9c2 was obtained from European Collection of Animal cell Cultures (ECACC) (88092904). The cells were maintained at 37° C. in Dulbecco's modified Eagle's medium (DMEM) supplemented with 10% fetal calf serum (GIBCO) in JOUAN C02 thermostat (5% CO2).
Heat shock was performed at 43° C. in CO2 thermostat for the given time intervals (20, 40, 60, 90 and 120 min.). Cells were then taken back to 37° C. for 6 hours and proteins were extracted for SDS-PAGE. […]
Protein concentration was determined from 5:1 samples by the Bradford assay (M. M. Braford, Anal. Biochem., 72: 248-254 (1976)) in three parallel. […]

SPRD male rats = assay: Cardiac ischemia (LAD occlusion 5 min, reperfusion 10 min): ventricular tachycardia, fibrillation, survival; format: in vivo, rat
Protocol: Experiments were carried out in SPRD male rats. The animals were anaesthetized with Nembutal in a dose of 60 mg/kg/i.p. After opening the chest and pericardium, the LAD coronary artery was occluded for 5 minutes and then the incidence and duration of ventricular tachycardia and fibrillation in the reperfusion period (10 minutes) were investigated. Tissue samples were collected from the left and right ventricles.

K562 cells = assay: Sensitivity of K562 cells to lysis mediated by NK cells; format: cell-based, human; details: heat shock plus treatment
[1] = system: Rats with genetic hypertension; assay: Morphological examination of the thoracic aorta of rats with genetic hypertension; format: in vivo, rat; details: daily oral treatment (20 mg/kg 8 days or 5 mg/kg 20 days)
Protocol: Rats with genetic hypertension were divided into four groups of four. The groups were treated daily, orally, the first group with physiological saline, the second group with N-[2-hydroxy-3-(1-piperidinyl)]-propoxy-3-pyridine-carboximidoyl-chloride maleate (20 mg/kg) for 8 days, the third group with N-[2-hydroxy-3-(1-piperidinyl)-propoxy]-benzimidoyl-chloride monohydrochloride (5 mg/kg) for 20 days and the fourth group with N-[2-hydroxy-3-(1-piperidinyl)-propoxy]-2-thiophenecarboximidoyl-chloride monohydrochloride (5 mg/kg) for 20 days. Animals were sacrificed, aortas were isolated, snap frozen in liquid nitrogen and were stored at −70° C. till they were used.
The examination was performed according to published methods (Br. J. of Pharmacol., 1995; 115, […]). A 1 mm^2 area of the thoracic aorta was excised and fixed in 2.5% glutaral-dehyde at room temperature. Post fixation was performed in 1% osmium-tetroxide for one hour. The tissue was dehydrated in ethanol and was embedded in Durcupan ACM. Pictures were taken by a Hitachi 7100 electronmicroscope and were evaluated qualitatively.

[2] = 0.5-, 0.75-, 1.0 mg/kg i.v. 5 min. before the occlusion

SMILES: O=C(O)/C=C\C(=O)O.OC(CON=C(Cl)c1cccnc1)CN1CCCCC1 (stereo not shown) [N-[2-hydroxy-3-(1-piperidinyl)-propoxy]3-pyridinecarboximidoyl chloride maleate]
- effect on hsp72 level (Hsp72; added during the recovery phase): also effective though to a lesser degree
- hsp72 level increased when comparing to 37° C. samples (Hsp72; administration before heat stress, 60 min. heat stress): about 50 times
- survival of reperfusion after the 5 min. occlusion (SPRD male rats; 100 mg/kg p.o., all control animals (n=6) died): survived the reperfusion
- mean duration of ventricular tachycardia (SPRD male rats; [2]): reduced significantly
- survival rate (preventing ventricular fibrillation) (SPRD male rats; [2]): improved the survival rate
- lisability of K562 cells by NK cells (K562 cells): synergistic effect on the lisability of K562 cells
- regeneration of the cells of aorta [1]: facilitated the regeneration of the cells of aorta
